The source of these data is paper PMC10242237 (Scientific Reports, 2023).

The structures appear in SMILES notation.

What is called inhibition is the share of the control response that was lost under treatment. The term CC50 denotes the concentration giving 50% cytotoxicity. As a reminder, the EC50 is the concentration needed to bring the measured effect to its halfway point.

In data set [1] the target is T1, SARS-CoV-2 PL^pro (Severe acute respiratory syndrome coronavirus 2, UniProt P0DTD1). Conditions: Flip-GFP assay, 293T-ACE2 cells; cited from earlier work.
The target in a further data set is SARS-CoV-2 M^pro (Severe acute respiratory syndrome coronavirus 2, UniProt P0DTD1). Nature of the data set: biochemical.
Data set [2] concerns M^pro. Conditions: in vitro FRET substrate assay, recombinant enzyme; cited from earlier work.
For data set [3], the target named is SARS-CoV-2 nsp14 N7-MTase (Severe acute respiratory syndrome coronavirus 2, UniProt P0DTD1). As to the kind of experiment: Py-FLINT fluorescence assay of nsp14 N7-MTase. It is filed as biochemical. To be noted: four-parameter dose-response fit, variable Hill slope.
Method: To determine their IC50 values, we used the previously described fluorescence assay Py-FLINT[42],[67]. To this end, the Py-FLINT probe (1 μM) was incubated with SAM cosubstrate (20 μM), nsp14 enzyme (40 nM), and half-log inhibitor dilutions in 50 mM Tris–HCl pH 7.5 buffer at 30 °C. The reaction progress was monitored in 96-well cells by registering the fluorescence intensity signal with a 1-min time interval. Using the initial reaction course, the values of initial rates V were calculated. To calculate IC50 values from the obtained dependences of initial rates versus inhibitor concentration, we fitted a four-parameter dose–response equation, assuming a variable Hill slope p (Table 3, Fig. S2).
The Py-FLINT probe (1 μM) was incubated with SAM cosubstrate (20 μM), nsp14 (40 nM), and an inhibitor (half-log dilutions logCinh < − 2.5; 2 >). […] Initial rates V were calculated by fitting a linear curve to the first 10 points (10 min). To the obtained dependences V(Cinh) the following four-parameter dose–response equation was fitted:1 V/V0=A1+A2-A1/1+Cinh/IC50^p, where A1 and A2 are the bottom and top asymptotes, respectively; Cinh the inhibitor concentration; p is the Hill coefficient, and V/V0 is the ratio of the initial reaction rate with the inhibitor to that without the inhibitor. For curve fitting and IC50 calculations we used GraphPad Prism software.
The conditions of data set [4]: phase I clinical trial, humans; cited from earlier work.
In data set [5] the target is T1, SARS-CoV-2 PL^pro. Nature of the data set: biochemical. Conditions: 0.5 h; [E] = 100 nM, [I] = 1 µM, [S] = 10 µM; read-out: inhibition [%] SARS-CoV-2 PLpro.
For data set [6], the system named is M^pro. To be noted: Protease-Glo luciferase and Flip-GFP assays; cited from earlier work.
Data set [7] in a line: Cytotoxicity assay (XTT) in Vero E6 cells. The format is cell-based. To be noted: African green monkey. The procedure:
Cytotoxicity was evaluated by incubating two-fold serial dilutions of each compound with Vero E6 cells.
In general terms: Tetrazolium assays rely on reduction of a dye to a coloured formazan, in cell work by metabolically active cells.

The next data set deals with SARS-CoV-2. Nature of the data set: Cytopathic effect (CPE)-based anti-SARS-CoV-2 assay in Vero E6 cells. Conditions: read-out: EC50 CPE, three days, XTT. For orientation: Damage to the host cells serves as the signal in cytopathic effect assays.

Consider `O=c1c2ccccc2[se]n1-c1ccccc1` [Ebselen, 2-phenylbenzisoselenazol-3(2H)-one, reference compound], for which the “SARS-CoV-2 PL^pro inhibition in cells” value on SARS-CoV-2 PL^pro [1] is “no SARS-CoV-2 PL^pro inhibition”. Also, on SARS-CoV-2 M^pro ([E] = 100 nM, [I] = 100 nM, [S] = 50 µM, read-out: inhibition [%] SARS-CoV-2 Mpro, [I] = 100 nM), the inhibition at 0.1 µM was determined as 57.6 ± 1.3%. In addition, the inhibition at 1 µM on SARS-CoV-2 M^pro (read-out: inhibition [%] SARS-CoV-2 Mpro, [I] = 1 µM) is 100%; at SARS-CoV-2 PL^pro [5], 65.4 ± 2.4%. Further, in the data set on M^pro [2], the “M^pro inhibition in presence of reducing agent” value is “does not inhibit”. Also, in data set [3], the “SARS-CoV-2 nsp14 Hill coefficient p” value is listed as 2.74 ± 0.47. The tolerated single dose in data set [4] was 1600 mg. Also, in the data set with M^pro [6], the “M^pro inhibition in cells” value is recorded as “no M^pro inhibition”. For the same molecule, the CC50 at 3 days in data set [7] is around 30 µM. For the same molecule, the EC50 in the data set on SARS-CoV-2 came to 34 ± 7.9 µM.
